Legend:
Assay type in all cases: cell-based
L. innocua HPB13 = assay: Critical-dilution micromethod (microtiter plate assay) on purification stages; conditions: specific activity at stage ni divided by that of the culture supernatant
Description: The concentrated bacteriocin was further purified by Reverse-Phase Column Liquid Chromatography (RP-HPLC) using a Beckman Gold System (Beckman Coulter Canada Inc., Mississauga, ON, Canada). Briefly, 100 μl of the concentrated bacteriocin were injected into an analytic C18 reverse-phase column (Luna 5μ, 4.6×250 mm, Phenomenex, Calif., USA). Elution was performed at a flow rate of 1 ml/min using a linear gradient from 90% solvent A (0.1% (wt/vol) trifluoroacetic acid (TFA) prepared in 5% (vol/vol) acetonitrile in water) and 10% solvent B (0.1% TFA in 100% acetonitrile) to 42 and 58% of solvents A and B, respectively, for 46 min. Peptide fractions were detected by spectrophotometry by measuring the absorbance at 220 nm and were collected manually. The fractions were concentrated using a speed-vac concentrator, dissolved in acetate buffer ([…], pH 4.0) and assayed for both bacteriocin activity by the critical-dilution micromethod, and protein content.
Protein concentration was determined as known in the art. […] Optical densities (650 nm) were then measured using a Thermo-max molecular device spectrophotometer (OPTI-Resources Inc., Quebec, PQ, Canada). […]
The biological activity of divergicin M35 was determined during the purification procedure by both agar diffusion and critical-dilution methods using L. innocua HPB 13 as indicator strain.

Lactobacillus salivarius = assay: Agar diffusion method, spectrum of activity; design: key: +, inhibition;; −, no inhibition; conditions: strain R 0078
Description: (§1) Bacteria stocks were maintained as 20% glycerol stock, at −80° C., for further use. Carnobacterium sp. and Lactococcus sp. strains were cultivated in MRS broth comprising 0.1% (vol/vol) Tween 80® in aerobic condition at 30° C., as currently known in the art. Listeria monocytogenes and Escherichia coli were grown in tryptic soy broth (TSB), supplemented with 0.6% (wt/vol) yeast extract in aerobic conditions, at 37° C., while Listeria innocua and L. ivanovii were re-cultivated in TSB with yeast extract and incubated aerobically at 30° C. Streptococcus thermophilus, Propionibacterium sp. and pediococci were activated in MRS broth at 37° C. under aerobic condition. All lactobacilli and bifidobacteria were grown in MRS broth supplemented with 0.05% (wt/vol) L-cysteine-hydrochloride and incubated anaerobically in Oxoid jars using an atmosphere generation system, at 37° C. In prior experiments, bacteria strains were sub-cultured at least three times (1%, vol/vol) in respective media at 24 h intervals.
(§2) The antibacterial activity of bacteriocin produced by C. divergens M35 was tested toward a variety of bacteria species, listed in Table 1, and belonging to genus Listeria, Lactobacillus, Streptococcus, Lactococcus, Propionibacterium and Escherichia, and was evaluated following the agar diffusion method, as is well known to those skilled in the art.

Bifidobacterium breve = assay: Agar diffusion method, spectrum of activity; design: key: +, inhibition;; −, no inhibition; conditions: strain ATCC 15700
Description: as §1, §2

Propionibacterium sp. = assay: Agar diffusion method, spectrum of activity; design: key: +, inhibition;; −, no inhibition; conditions: strain P5
Description: as §1, §2

[1] = system: Lactococcus lactis (subsp. lactis biovar. diacetylactis); assay: Agar diffusion method, spectrum of activity; design: key: +, inhibition;; −, no inhibition
Description: as §1, §2

[2] = system: Streptococcus thermophilus; assay: Agar diffusion method, spectrum of activity; design: key: +, inhibition;; −, no inhibition; conditions: strain R 0083
Description: as §1, §2

[3] = system: Lactobacillus delbrueckii subsp. lactis; assay: Agar diffusion method, spectrum of activity; design: key: +, inhibition;; −, no inhibition; conditions: strain R 0187
Description: as §1, §2

[4] = system: Lactobacillus acidophilus; assay: Agar diffusion method, spectrum of activity; design: key: +, inhibition;; −, no inhibition; conditions: strain R 0052
Description: as §1, §2

L. ivanovii = assay: Agar diffusion method, spectrum of activity; design: key: +, inhibition;; −, no inhibition
Description: as §1, §2

Lactobacillus plantarum = assay: Agar diffusion method, spectrum of activity; design: key: +, inhibition;; −, no inhibition; conditions: strain R 1012
Description: as §1, §2

Lactobacillus rhamnosus = assay: Agar diffusion method, spectrum of activity; design: key: +, inhibition;; −, no inhibition; conditions: strain R 0011
Description: as §1, §2

Pediococcus pentosaceus = assay: Agar diffusion method, spectrum of activity; design: key: +, inhibition;; −, no inhibition; conditions: strain R 1044
Description: as §1, §2

[5] = system: Propionibacterium freudenreichii; assay: Agar diffusion method, spectrum of activity; design: key: +, inhibition;; −, no inhibition; conditions: strain R 0501
Description: as §1, §2

Pediococcus acidilactici = assay: Agar diffusion method, spectrum of activity; design: key: +, inhibition;; −, no inhibition
Description: as §1, §2

[6] = system: Lactococcus lactis (subsp. lactis); assay: Agar diffusion method, spectrum of activity; design: key: +, inhibition;; −, no inhibition; conditions: strain R0058
Description: as §1, §2

Lactobacillus casei = assay: Agar diffusion method, spectrum of activity; design: key: +, inhibition;; −, no inhibition; conditions: strain R R0256
Description: as §1, §2

“divergicin M35: class IIa bacteriocin of 43 amino acids, 4518 Da, produced by Carnobacterium divergens strain M35 (SEQ ID NO: 1) (TKYYGNGVYCNSKKCWVDWGTAQGCIDVVIGQLGGGIPGKGKC; listed as Carnobacterium divergens)” was tested, and the “Increase in specific Activity (fold)” value (L. innocua HPB13) was 9500 fold, the “Sensitivity to divergicin M35” value (Lactobacillus salivarius) was “−” and the “Sensitivity to divergicin M35” value (Bifidobacterium breve) was “−”. For the same substance, the “Sensitivity to divergicin M35” value (Propionibacterium sp.) was “−”, the “Sensitivity to divergicin M35” value ([1]; strain R 0100) was “−” and the “Sensitivity to divergicin M35” value ([1]; strain UL719) was “−”. The “Sensitivity to divergicin M35” value [2] was “−”, the “Sensitivity to divergicin M35” value [3] was “−” and the “Sensitivity to divergicin M35” value [4] was “−”. The “Sensitivity to divergicin M35” value (L. ivanovii; strain ATCC19119) was “−”, the “Sensitivity to divergicin M35” value (L. ivanovii; strain HPB28) was “+” and the “Sensitivity to divergicin M35” value (Lactobacillus plantarum) was “−”. For the same substance, the “Sensitivity to divergicin M35” value (Lactobacillus rhamnosus) was “−”, the “Sensitivity to divergicin M35” value (Pediococcus pentosaceus) was “−” and the “Sensitivity to divergicin M35” value [5] was “−”. The “Sensitivity to divergicin M35” value (Pediococcus acidilactici; strain R 1001) was “−”, the “Sensitivity to divergicin M35” value (Pediococcus acidilactici; strain UL 5) was “−” and the “Sensitivity to divergicin M35” value [6] was “−”. The “Sensitivity to divergicin M35” value (Lactobacillus casei) was “−”.

— patent publication US7247306B2, “Bacteria strain and bacteriocin produced therefrom” (Universite Laval, priority 2004, dated 2007)
